Counter-ions that a name gives are not always drawn.
Legend:
Assay type in all cases: physicochemical
[1] = Stability assessment in constant temperature and humidity chambers, crystalline form tested by XRPD; details: 2 weeks
Method: Two samples of Form CS3 of ozanimod hydrochloride were placed in constant temperature and humidity chambers at 25° C./60% RH and 40° C./75% RH for 2 weeks. XRPD was used to test the crystalline form. The XRPD overlay pattern is substantially as depicted in FIG. 8 (from top to bottom: XRPD pattern of Form CS3 before and after being stored under 25° C./60% RH and 40° C./75% RH for 2 weeks). […] It can be seen that Form CS3 of ozanimod hydrochloride has good stability, which is benefit for drug storage.

[2] = Solubility assessment: saturated solutions in SGF, FeSSIF and water, concentration by HPLC; details: thermodynamic from solid
Method: Form CS3 of ozanimod hydrochloride was suspended into SGF (Simulated gastric fluids, pH=1.8), FeSSIF (Fed state simulated intestinal fluids, pH=5.0) and water to obtain saturated solutions. After being equilibrated for 1 h, 4 h and 24 h, concentrations of the saturated solutions were measured by HPLC.

[3] = Hygroscopicity assessment by dynamic vapor sorption (DVS); details: 25° C.; for Weight Gain under 80% RH: DVS, about 10 mg of sample
Method: Dynamic Vapor Sorption (DVS) is measured via an SMS (Surface Measurement Systems Ltd.) intrinsic DVS. Typical Parameters for DVS test are as follows:
Gas and flow rate: N2, 200 mL/min
RH range: 0% RH to 95% RH
Dynamic vapor sorption (DVS) was applied to test hygroscopicity of Form CS3 with about 10 mg of sample. The DVS plot is substantially as depicted in FIG. 5.
Description and definition of hygroscopicity (Chinese Pharmacopoeia 2015 edition appendix Drug hygroscopic test guidelines, test at 25° C.+/−1° C., 80% RH). • deliquescent: Sufficient water is absorbed to form a liquid; • very hygroscopic: Increase in mass is equal to or greater than 15%; • hygroscopic: Increase in mass is less than 15% and equal to or greater than 2%; • slightly hygroscopic: Increase in mass is less than 2% and equal to or greater than 0.2%. • no or almost no hygroscopic: Increase in mass is less than 0.2%.

[4] = Particle size distribution test (Microtrac S3500 laser particle size analyzer, wet process)
Method: The particle size distribution test in the present disclosure is acquired by the S3500 laser particle size analyzer of Microtrac. Microtrac S3500 is equipped with the SDC (Sample Delivery Controller). The test is carried out by wet process, and the dispersion medium is Isopar G The parameters are as follow:
Sample of Form CS3 was taken for particle size distribution test.

- Crystalline form change by XRPD after storage ([1]; 25° C./60% RH): No form change
- Crystalline form change by XRPD after storage ([1]; 40° C./75% RH): No form change
- solubility at 1 h ([2]; fed state simulated intestinal fluid (FeSSIF), FeSSIF pH=5.0, 1 h): 2100 µg/mL
- solubility at 4 h ([2]; fed state simulated intestinal fluid (FeSSIF), FeSSIF pH=5.0, 4 h): 2100 µg/mL
- solubility at 24 h ([2]; fed state simulated intestinal fluid (FeSSIF), FeSSIF pH=5.0, 24 h): 1800 µg/mL
- solubility at 1 h ([2]; simulated gastric fluid (SGF), simulated gastric fluid, SGF pH=1.8, 1 h): 200 µg/mL
- solubility at 4 h ([2]; simulated gastric fluid (SGF), simulated gastric fluid, SGF pH=1.8, 4 h): 200 µg/mL
- solubility at 24 h ([2]; simulated gastric fluid (SGF), simulated gastric fluid, SGF pH=1.8, 24 h): 200 µg/mL
- solubility at 1 h ([2]; water, H2O, 1 h): 1100 µg/mL
- solubility at 4 h ([2]; water, H2O, 4 h): 1400 µg/mL
- solubility at 24 h ([2]; water, H2O, 24 h): 1300 µg/mL
- Hygroscopicity class according to the definition of hygroscopicity ([3]; Chinese Pharmacopoeia 2015 definition, 80% RH): hygroscopic
- Weight Gain under 80% RH ([3]; hydrochloride): 2.50%
- Weight Gain under 80% RH ([3]; listed as Form CS3, hydrochloride): 2.50%
- MV (average particle size calculated by volume) ([4]; dispersion medium Isopar G, average of 3 runs): 131.8 μm
- average particle size ([4]; unit not given): 131.8
- D10 ([4]; volume distribution, Isopar G): 19.94 μm
- D50 ([4]; volume distribution, Isopar G): 100.5 μm
- D90 ([4]; volume distribution, Isopar G): 287.0 μm
Structure (SMILES): CC(C)Oc1ccc(-c2nc(-c3cccc4c3CC[C@@H]4NCCO)no2)cc1C#N [Form CS3 of ozanimod hydrochloride, ozanimod hydrochloride]

From patent publication US10882830B2, “Crystal form of ozanimod hydrochloride and processes for preparation therefor” (Receptos LLC, priority 2016, dated 2021)
